# According to patent US20230320995A1, “IONIZABLE CATIONIC LIPIDS AND LIPID NANOPARTICLES” (CAPSTAN THERAPEUTICS, INC., priority 2022, published 2023):
# Where two headings read alike, the source gives them in different places.
# Experiments:
# [1] = tested on: mouse splenic T cells; assay: targeted transfection of T cells in vitro with CD5-targeted tLNP; format: cell-based; settings: activated mouse splenic T cells, 0.6 μg tLNP per well; for transfection rate (proportion of CD3+ cells mCherry positive): 1 hour, read next day
# Procedure: To assess the performance of tLNP described in Example 35 they were used to transfect mouse T cells in tissue culture. Mouse splenic T cells were isolated from mechanically dissociated mouse spleens using a standard T cell isolation kit (Stem Cell Technologies #19851). Isolated T cells were cultured in complete RPMI medium supplemented with murine interleukin-2 in the presence of CD3/CD28 T cell activation beads (Gibco #11453D) for 3 days. Following activation, T cells were magnetically separated from the activation beads and transferred to a 96-well plate at a concentration of 2×10^5 cells per well in 100 μL of complete RPMI medium. tLNP formulations as described in Example 35 (above) were diluted to 100 μg/mL and 6 μL (0.6 μg) of tLNP was added to each well of cells to be tested. Cells were incubated with tLNPs at 37° C. for 1 hour before tLNPs were washed away by centrifuging the plate, removing the supernatant, and replacing with fresh medium. Transfected cells were then returned to the incubator overnight. The next day, cells were washed and resuspended in stain buffer containing fluorescently tagged antibodies against T cells markers for 30 minutes before a final wash. After washing, cells were resuspended in stain buffer and run on the Novocyte Quanteon flow cytometer to detect mCherry expression as well as murine T cell markers. Results for CD3^+ T cells are depicted in FIG. 6.
# [2] = physical-chemical properties of CD5-targeted tLNP encapsulating mCherry mRNA; format: physicochemical; settings: for Hydrodynamic diameter: anti-CD5 tLNP: ionizable lipid/DSPC/cholesterol/DMG-PEG 2000/DSPE-PEG2000-Maleimide 50:10:38.5:1.4:0.1
# Text: CleanCap® mCherry 5-methoxyuridine (5moU) mRNA (L-7203) was purchased from TriLink. mRNA was encapsulated in LNP using a self-assembly process in which an aqueous solution of mRNA at pH=3.5 is rapidly mixed with a solution of lipids dissolved in ethanol, then followed by stepwise phosphate and Tris buffer dilution and TFF purification. LNP composition in this study was: ionizable cationic lipid/distearoylphosphatidylcholine/cholesterol/DMG-PEG 2000/distearoylphosphatidyl ethanolamine(DSPE)-PEG2000-Maleimide (50:10:38.5:1.4:0.1 mol/mol) and were encapsulated at an N/P ratio (the ratio of positively-chargeable […] amine (N=nitrogen) groups to negatively-charged nucleic acid phosphate (P) groups) at 6. The hydrodynamic diameter of the nanoparticles was measured by dynamic light scattering using a Zetasizer Nano ZS (Malvern Instruments Ltd., Malvern, UK) instrument.
# Next, an anti-CD5 mAb was conjugated to the above LNP to generate tLNP. Purified rat anti-mouse CD5 antibody, clone 53-7.3 (BioLegend), was coupled to LNP via N-succinimidyl S-acetylthioacetate (SATA)-maleimide conjugation chemistry. Briefly, LNPs with DSPE-PEG(2000)-maleimide incorporated were formulated and stored at 4° C. on the day of conjugation. The antibody was modified with SATA (Sigma-Aldrich) to introduce sulfhydryl groups at accessible lysine residues allowing conjugation to maleimide. SATA was deprotected using 0.5 M hydroxylamine followed by removal of the unreacted components by G-25 Sephadex Quick Spin Protein columns (Roche Applied Science, Indianapolis, IN). The reactive sulfhydryl group on the antibody was then conjugated to maleimide moieties on the LNPs using thioether conjugation chemistry. Purification was performed using Sepharose CL-4B gel filtration columns (Sigma-Aldrich). tLNPs (LNPs conjugated with a targeting antibody) were frozen at −80° C. Others have conjugated antibody to free functionalized PEG-lipid and then incorporated the conjugated lipid into pre-formed LNP.
# mRNA content was determined using a Quant-iT™ RiboGreen RNA assay kit (Invitrogen™). Encapsulation efficiency was calculated by determining the unencapsulated mRNA content by measuring the fluorescence intensity (Fi) upon the addition of RiboGreen reagent to the LNP and comparing this value to the total fluorescence intensity (Ft) of the RNA content that is obtained upon lysis of the LNPs by 1% Triton X-100, where % encapsulation=(Ft−Fi)/Ft x 100).
# The particle size (hydrodynamic diameter) and polydispersity index of the targeted lipid nanoparticles were determined using dynamic light scattering (DLS) on a Malvern Zetasizer Nano ZS (Malvern Instruments, Worcestershire, UK). Size measurement was carried out in pH 7.4 Tris buffer at 25° C. in relevant disposable capillary cells. A non-invasive back scatter system (NIBS) with a scattering angle of 173° was used for size measurements.
# [3] = physical-chemical properties of LNP encapsulating mCherry mRNA; format: physicochemical; settings: for Hydrodynamic diameter: LNP: ionizable lipid/DSPC/cholesterol/DMG-PEG2000 50:10:38.5:1.5, mCherry mRNA, pH 7.4 Tris, 25° C.
# Text: The mRNA was encapsulated in LNP using a self-assembly process in which an aqueous solution of mRNA at pH=3.5 is rapidly mixed with a solution of lipids dissolved in ethanol, then followed by stepwise phosphate and Tris buffer dilution and tangential flow filtration (TFF) purification. LNP composition in this study was: ionizable cationic lipid/distearoylphosphatidylcholine/cholesterol/DMG-PEG2000 (50:10:38.5:1.5 mol/mol) and were encapsulated at an N/P ratio (the ratio of positively-chargeable lipid amine (N=nitrogen) groups to negatively-charged nucleic acid phosphate (P) groups) at 6. LNPs were frozen at −80° C. […] The diameter of the nanoparticles was measured by dynamic light scattering using a Zetasizer Nano ZS (Malvern Instruments Ltd., Malvern, UK) instrument. Size measurement was carried out in pH 7.4 Tris buffer at 25° C. in relevant disposable capillary cells. A non-invasive back scatter system (NIBS) with a scattering angle of 173° was used for size measurements.
# [4] = apparent pKa of ionizable lipid in lipid nanoparticle, TNS assay; format: physicochemical; settings: for ΔpKa: difference of calculated and measured pKa; for pKa: TNS assay
# Procedure: c Log D and c-pKa were calculated as noted above. The measured pKa of a lipid was determined as formulated in a lipid nanoparticle using the TNS assay as described in the following Example.
# The apparent pKa of ionizable lipid in the lipid nanoparticle was determined using 6-(p-toluidino)-2-naphthalenesulfonic acid sodium salt (TNS salt, Toronto Research Chemicals, Toronto, ON, Canada). Lipid nanoparticles were diluted in 1×Dulbecco's PBS to a concentration of 1 mM total lipids. TNS salt was prepared as a 1 mg/mL stock solution in DMSO and then further diluted using distilled water to a working solution of 60 μg/mL ([…]). Diluted lipid nanoparticle samples were further diluted to 90 μM total lipids in 165 μL of buffered solution containing 10 mM HEPES, 10 mM MES, 10 mM ammonium acetate, 130 mM NaCl, and final TNS concentration of 1.33 μg/mL (4 μM) with the pH ranging from 3.5 to 12.2. Following pipette mixing and incubation at room temperature in the dark for 15 min, fluorescence intensity was measured at room temperature in a BioTek Synergy H1 plate reader using excitation and emission wavelengths of 321 and 445 nm, respectively. The fluorescence signal was blank subtracted and plotted as a function of the pH, then analyzed using a nonlinear (Boltzmann) regression analysis with the apparent pKa determined as the pH giving rise to half maximal fluorescence intensity as calculated by the Henderson-Hasselbalch equation.
# [5] = ionizable lipid in tLNP, read-out: Measured pKa
# [6] = measured, lipid formulated in a lipid nanoparticle, read-out: pKa
Compound,transfection rate (proportion of CD3+ cells mCherry positive) [1],Hydrodynamic diameter ([2]; DLS),"PDI (polydispersity index) ([2]; anti-CD5 tLNP, DLS)","Encapsulation Efficiency ([2]; anti-CD5 tLNP, RiboGreen assay)","Encapapsulation Efficiency ([3]; LNP 50:10:38.5:1.5, mCherry mRNA, N/P 6)","PDI (polydispersity index) ([3]; LNP 50:10:38.5:1.5, mCherry mRNA, DLS)","Hydrodynamic diameter ([3]; N/P 6, DLS)",ΔpKa [4],"pKa [4, 5]","pKa [4, 6]",level of mCherry expression (MFI) [1]
CCCCCCCCCC(=O)OCC(COC(=O)CCCCCCCCC)CC(=O)OCCN(CCOC(=O)CC(COC(=O)CCCCCCCCC)COC(=O)CCCCCCCCC)C(=O)NCCCN(C)C [Compound A-2],"poor, but still positive",105 nm,0.20,99%,99%,0.13,73 nm,1.62,7.92,7.92,
CCCCCCCCC(=O)OCC(COC(=O)CCCCCCCC)CC(=O)OCCN(CCOC(=O)CC(COC(=O)CCCCCCCC)COC(=O)CCCCCCCC)C(=O)OCCN(C)C [Compound A-11],~80%,93 nm,,,,,82 nm,1.81,6.65,6 to 7,high level of expression
